# Several values for one entry are separate records, joined by “and”; a condition that tells them apart may be missing. Identical values can stand only once. Like-named read-outs stand apart in the source and are kept apart here.
# Columns and labels:
# [1] = Room temperature aqueous solubility with solubilizing agents (Example 36); assay type: physicochemical
# Source text: The room temperature aqueous solubility (mg/mL) of the a compound (4-{(S)-2-[(S)-2-methoxycarbonylamino)-3-phenylpropanamido]-2-[2-(thiophen-2-yl)thiazol-4-yl]ethyl}phenylsulfamic acid) in water, HPβCD, Poloxamer 407, and sulfobutylether-β-cyclodextrin, is provided in TABLE XXVII. Solubility in saline for the test compound is reduced presumably due to the common ion effect.
# The solubility (mg/mL) of the test compound in mixtures of HPβCD and PEG400 is illustrated in TABLE XXVIII.
# [2] = test system: human subjects with visual acuity loss due to diabetic macular edema; assay: Central foveal/retinal thickness by ocular coherence tomography in diabetic macular edema study (Example 35); assay type: in vivo
# Description: At any time during the course of the study, investigators could administer additional therapy consisting of intravitreal injection of an anti-VEGF agent, for example, ranibizumab, bevacizumab and/or aflibercept, if considered by the investigator to be medically necessary. Retinal thickness as measured by ocular coherence tomography and best corrected visual acuity as measured by a standard vision test (ETDRS) were assessed at regular intervals during the 28 day active treatment phase and through the 2 month post-treatment observation phase, (Screening, Day 1 [baseline], Day 7, Day 14, Day 21, Day 28, Day 42, Day 56 and Day 84). The main efficacy outcomes for the study were change in CRT and visual acuity over time with treatment. […] The mean change in Central Foveal Thickness was −289 μm, approximately double the reduction seen after ranibizumab injection in the study in FIG. 1. FIG. 5 represents the results of a single patient. The eye having the greater Central Foveal Thickness was chosen as the Study Eye. […] At week 3 (21 days, indicated by arrow) the fellow eye was treated with 0.5 mg of ranibizumab by injection. At week 6 (42 days, indicated by arrow) the treated eye was treated with 0.5 mg of ranibizumab. […] As a result, there was a pronounced reduction in CFT in the study eye from day 21 to day 28 (approximately 250 µm). […] At week 6, the study eye was treated with an intravitreal injection of 0.5 mg of ranibizumab. […] Compared to the study depicted in FIG. 1 wherein the average change in CFT at one month after ranibizumab injection was approximately […], the combination disclosed method provided substantially greater reductions at 2-4 weeks following ranibizumab injection. FIG. 6 represents the results of a single patient. The eye having the greater Central Foveal Thickness was chosen as the Study Eye. […] At week 4 (28 days, indicated by arrow) the fellow eye was rescued with 2 mg of aflibercept. […] At week 6 (42 days, indicated by arrow) the study eye was rescued with 2 mg of aflibercept. […] Unlike the results depicted for the ranibizumab protocol, there was no evidence of systemically delivered aflibercept to the Fellow Eye.
# [3] = aqueous with cosolvent or surfactant or cyclodextrin, Solubility
SMILES,"Solubility [1, 3] [mg/mL]","Solubility ([1]; water, Solubility) [mg/mL]","Central Foveal Reduction, single patient eye ([2]; 5 mg subcutaneously twice daily for 28 days, subsequently ranibizumab (0.3 or 0.5 mg) or aflibercept (2 mg) intravitreal, 14-28 days post ranibizumab or aflibercept, 7 eyes)","fall of Central Foveal Thickness of the fellow eye ([2]; single patient (FIG. 5), 5 mg s.c. twice daily from day one, fellow eye 0.5 mg ranibizumab at week 3, by week 4 (28 days)) [μm]","overall reduction in CFT of the study eye ([2]; single patient (FIG. 5), by week 8, after 0.5 mg ranibizumab at week 6)","reduction in CFT in the study eye ([2]; single patient (FIG. 5), from day 21 to day 28)",reduction of CFT in the non-treated eye from onset of the study ([2]; single patient (FIG. 6)) [μm],reduction of CFT in the study eye from onset of the study ([2]; single patient (FIG. 6)),"CFT reduction of the Fellow eye after rescue ([2]; single patient (FIG. 6), 5 mg s.c. twice daily from day one, fellow eye rescued with 2 mg aflibercept at week 4)","CFT reduction of the Study eye after rescue ([2]; single patient (FIG. 6), study eye rescued with 2 mg aflibercept at week 6)","solubility in saline ([1]; room temperature, compared with water)",Solubility [1] [mg/mL]
COC(=O)N[C@@H](Cc1ccccc1)C(=O)N[C@@H](Cc1ccc(NS(=O)(=O)O)cc1)c1nc(-c2cccs2)cs1,42,38,–,–,–,–,–,–,–,–,–,–
COC(=O)N[C@@H](Cc1ccccc1)C(=O)N[C@@H](Cc1ccc(NS(=O)(=O)O)cc1)c1csc(-c2cccs2)n1,–,–,50-100 μm and 150-200 μm and 200-250 μm and 300-350 μm and 350-400 μm and 450-500 μm,350,approximately 500 μm,approximately 250 µm,~280,approximately 300 μm,approximately 400 μm,approximately 300 μm,reduced,–
CCc1csc([C@H](Cc2ccc(NS(=O)(=O)O)cc2)NC(=O)[C@H](Cc2ccccc2)NC(=O)OC)n1,60,45,–,–,–,–,–,–,–,–,–,89
